Measured values from the NIST ThermoML archive (doi:10.1021/je300632p).

Assay: xn = mol fraction of the nth substance listed
Conditions: 101 kPa, Liquid; for viscosity: Falling or rolling sphere viscometry; for mass density: Vibrating tube method

CCCCO [butan-1-ol] + CCO
Conditions	mass density, 313.15 K [kg/m3]	mass density, 318.15 K [kg/m3]	mass density, 323.15 K [kg/m3]	mass density, 328.15 K [kg/m3]	viscosity, 313.15 K [mPa·s]	viscosity, 318.15 K [mPa·s]	viscosity, 323.15 K [mPa·s]	viscosity, 328.15 K [mPa·s]
x2 = 0	793.68	789.75	785.78	781.75	1.756	1.564	1.397	1.252
x2 = 0.1	792.33	788.37	784.36	780.31	1.664	1.487	1.333	1.199
x2 = 0.2	790.79	786.8	782.76	778.67	1.569	1.407	1.265	1.141
x2 = 0.3	789.13	785.11	781.03	776.91	1.427	1.283	1.158	1.047
x2 = 0.4	787.74	783.67	779.54	775.38	1.318	1.189	1.074	0.974
x2 = 0.501	785.57	781.46	777.29	773.09	1.246	1.127	1.024	0.93
x2 = 0.602	783.31	779.15	774.95	770.69	1.142	1.037	0.943	0.86
x2 = 0.701	780.94	776.73	772.47	768.15	1.052	0.957	0.874	0.798
x2 = 0.801	778.41	774.14	769.82	765.44	0.98	0.895	0.817	0.749
x2 = 0.9	775.63	771.28	766.89	762.45	0.892	0.815	0.748	0.686
